Several values for one entry are separate records, joined by “and”; a condition that tells them apart may be missing. Identical values can stand only once. After the bases stand the sugars from the 5' end (letter, count) and the backbone: PS all phosphorothioate, else s phosphorothioate and o phosphodiester by linkage. Methylation of C is not given here. e = 2'-O-(2-methoxyethyl) (MOE); k = constrained ethyl (cEt); d = 2'-deoxy (DNA)
Tests used:
SOD1 = settings: ASO
APOL1 = settings: ASO

Sequence: AAACTATACAAATCTTC (sugars e2 k2 d8 k2 e3, PS)
- target mRNA inhibition (SOD1; HepG2, 5 µM): 55%

Sequence: AAAGTCACACAATTACACTT (sugars e5 d10 e5, PS)
- target mRNA inhibition (SOD1; HepG2, 5 µM): 15%

Sequence: AAAGTGAGGACCTGCAC (sugars e3 k2 d7 k2 e3, PS)
- target mRNA inhibition (SOD1; HepG2, 3 µM): 20%

Sequence: AAATACAGGTCATTGAA (sugars e2 k2 d9 k2 e2, PS)
- target mRNA inhibition (SOD1; HepG2, 5 µM): 47%

Sequence: AAATCAGTTTCTCACTACAG (sugars e5 d10 e5, PS)
- target mRNA inhibition (SOD1; HepG2, 5 µM): 0%

Sequence: AAATTGATGATGCCCTGCAC (sugars e5 d10 e5, PS)
- target mRNA inhibition (SOD1; HepG2, 4 µM): 14%

Sequence: AACAGATGAGTTAAGGG (sugars e2 k2 d9 k2 e2, PS)
- target mRNA inhibition (SOD1; HepG2, 0.1875 µM): 27%
- target mRNA inhibition (SOD1; HepG2, 0.75 µM): 49%
- target mRNA inhibition (SOD1; HepG2, 3 µM): 82%
- target mRNA inhibition (SOD1; HepG2, 4 µM): 86% and 82%
- target mRNA inhibition (SOD1; HepG2, 12 µM): 89% and 92%

Sequence: AACATGCCTCTCTTCAT (sugars e3 k2 d7 k2 e3, PS)
- target mRNA inhibition (SOD1; HepG2, 3 µM): 13%

Sequence: AACTATACAAATCTTCC (sugars e2 k2 d9 k2 e2, PS)
- target mRNA inhibition (SOD1; HepG2, 5 µM): 63%

Sequence: AACTCGCTAGGCCACGCCGA (sugars e5 d10 e5, PS)
- target mRNA inhibition (SOD1; HepG2, 4 µM): 44%

Sequence: AAGTCACACAATTACAC (sugars e2 k2 d9 k2 e2, PS)
- target mRNA inhibition (SOD1; HepG2, 5 µM): 37%

Sequence: AAGTCATCTGCTTTTTC (sugars e3 k2 d7 k2 e3, PS)
- target mRNA inhibition (SOD1; HepG2, 3 µM): 83%

Sequence: AAGTCTGGCAAAATACA (sugars e3 k2 d7 k2 e3, PS)
- target mRNA inhibition (SOD1; HepG2, 3 µM): 10%

Sequence: AAGTGAGGACCTGCACT (sugars e3 k2 d7 k2 e3, PS)
- target mRNA inhibition (SOD1; HepG2, 3 µM): 16%

Sequence: AATACAGGTCATTGAAA (sugars e3 k2 d7 k2 e3, PS)
- target mRNA inhibition (SOD1; HepG2, 3 µM): 6%

Sequence: AATCAGTTTCTCACTAC (sugars e2 k2 d9 k2 e2, PS)
- target mRNA inhibition (SOD1; HepG2, 5 µM): 53%

Sequence: AATCTTCCAAGTGATCA (sugars e2 k2 d9 k2 e2, PS)
- target mRNA inhibition (SOD1; HepG2, 5 µM): 38%

Sequence: AATGGTCTCCTGAGAGTGAG (sugars e5 d10 e5, PS)
- target mRNA inhibition (SOD1; HepG2, 5 µM): 22%

Sequence: AATTACACCACAAGCCA (sugars e2 k2 d8 k2 e3, PS)
- target mRNA inhibition (SOD1; HepG2, 4 µM): 62%

Sequence: AATTACACCACAAGCCA (sugars e3 k2 d7 k2 e3, PS)
- target mRNA inhibition (SOD1; HepG2, 3 µM): 21%

Sequence: AATTTGGATTCTTTTAATAG (sugars e5 d10 e5, PS)
- target mRNA inhibition (SOD1; HepG2, 5 µM): 14%

Sequence: ACAAGTTTAATACCCAT (sugars e2 k2 d9 k2 e2, PS)
- target mRNA inhibition (SOD1; HepG2, 5 µM): 61%

Sequence: ACAAGTTTAATACCCAT (sugars e3 k2 d7 k2 e3, PS)
- target mRNA inhibition (SOD1; HepG2, 3 µM): 23%

Sequence: ACACCACAAGCCAAACGACT (sugars e5 d10 e5, PS)
- target mRNA inhibition (SOD1; HepG2, 5 µM): 49%

Sequence: ACAGGGTTTTTATTCAC (sugars e2 k2 d8 k2 e3, PS)
- target mRNA inhibition (SOD1; HepG2, 5 µM): 29%

Sequence: ACAGGTCATTGAAACAG (sugars e3 k2 d7 k2 e3, PS)
- target mRNA inhibition (SOD1; HepG2, 3 µM): 14%

Sequence: ACAGTGTTTAATGTTTA (sugars e3 k2 d7 k2 e3, PS)
- target mRNA inhibition (SOD1; HepG2, 0.1875 µM): 35%
- target mRNA inhibition (SOD1; HepG2, 0.75 µM): 71%
- target mRNA inhibition (SOD1; HepG2, 3 µM): 56% and 79%
- target mRNA inhibition (SOD1; HepG2, 12 µM): 82%

Sequence: ACAGTGTTTAATGTTTAT (sugars e5 d8 e5, linkages s1 o3 s9 o2 s2)
- target mRNA inhibition (SOD1; A431, 0.12 µM): 0%
- target mRNA inhibition (SOD1; A431, 0.6 µM): 18%
- target mRNA inhibition (SOD1; A431, 3 µM): 26%
- target mRNA inhibition (SOD1; A431, 15 µM): 45%
- target mRNA inhibition (SOD1; HepG2, 0.222 µM): 19%
- target mRNA inhibition (SOD1; HepG2, 0.667 µM): 30%
- target mRNA inhibition (SOD1; HepG2, 2 µM): 46% and 50%
- target mRNA inhibition (SOD1; HepG2, 6 µM): 70%

Sequence: ACATGCCTCTCTTCATC (sugars e3 k2 d7 k2 e3, PS)
- target mRNA inhibition (SOD1; HepG2, 3 µM): 0%

Sequence: ACCTGCACTGGTACAGCCTG (sugars e5 d10 e5, PS)
- target mRNA inhibition (SOD1; HepG2, 5 µM): 46% and 48%

Sequence: TGGGTCAAAAGCGATG (sugars k4 d9 k3, PS)
- target mRNA inhibition (APOL1; A431, 0.0625 µM): 25%
- target mRNA inhibition (APOL1; A431, 0.25 µM): 54%
- target mRNA inhibition (APOL1; A431, 1 µM): 77%

Sequence: TGGTTCAAAAGCAGCA (sugars kkddddekekeddddd, PS)
- target mRNA inhibition (APOL1; A431, 2 µM): 82%

Sequence: TGGTTCAAAAGCAGCA (sugars kkddddkekekddddd, PS)
- target mRNA inhibition (APOL1; A431, 2 µM): 68%

Sequence: TGGTTCAAAAGCAGCA (sugars kkkddddkekekdddd, PS)
- target mRNA inhibition (APOL1; A431, 2 µM): 57%

Sequence: TGTAAGTGCAACCAAT (sugars kdddddkekekddddd, PS)
- target mRNA inhibition (APOL1; A431, 2 µM): 81%

Sequence: TGTATTTCTTGATGTG (sugars k2 d4 e3 k2 d5, PS)
- target mRNA inhibition (APOL1; A431, 2 µM): 87%

Sequence: TGTTATATTTGATCCT (sugars k2 d4 e3 k2 d5, PS)
- target mRNA inhibition (APOL1; A431, 2 µM): 87%

Sequence: TGTTATATTTGATCCT (sugars kekddddeekkddddd, PS)
- target mRNA inhibition (APOL1; A431, 0.0156 µM): 31%
- target mRNA inhibition (APOL1; A431, 0.0625 µM): 40%
- target mRNA inhibition (APOL1; A431, 0.25 µM): 70%
- target mRNA inhibition (APOL1; A431, 1 µM): 89%
- target mRNA inhibition (APOL1; A431, 2 µM): 94%

Sequence: TGTTATATTTGATCCT (sugars kkdddddkekeddddd, PS)
- target mRNA inhibition (APOL1; A431, 0.0156 µM): 33%
- target mRNA inhibition (APOL1; A431, 0.04 µM): 50%
- target mRNA inhibition (APOL1; A431, 0.0625 µM): 59%
- target mRNA inhibition (APOL1; A431, 0.25 µM): 81%
- target mRNA inhibition (APOL1; A431, 1 µM): 92%
- target mRNA inhibition (APOL1; A431, 2 µM): 92%

Sequence: TGTTATATTTGATCCT (sugars kkddddkdkdkddddd, PS)
- target mRNA inhibition (APOL1; A431, 2 µM): 86%

Sequence: TGTTATATTTGATCCT (sugars kkkddddkdkdkdddd, PS)
- target mRNA inhibition (APOL1; A431, 2 µM): 66%

Sequence: TTATACCAGTGTCTTC (sugars kdddddkekekddddd, PS)
- target mRNA inhibition (APOL1; A431, 2 µM): 82%

From the OligoGym collection
